# Assay results: patent US4482551A, “Cephalosporin derivatives” (Hoffmann-La Roche Inc., priority 1982, dated 1984)
# Counter-ions that a name gives are not always drawn. Like-named read-outs stand apart in the source and are kept apart here.
# Assays:
# [1] = system: Pseudomonas aeruginosa strain 1; assay: Activity in vitro: Minimum inhibitory concentration; assay type: cell-based
# Description: (§1) Activity in vitro: Minimum inhibitory concentration
# Proteus vulgaris = assay: as above; assay type: cell-based; conditions: read-out: Minimum inhibitory concentration
# Description: as §1
# [2] = system: Pseudomonas aeruginosa strain 2; assay: as above; assay type: cell-based
# Description: as §1
# Escherichia coli = assay: as above; assay type: cell-based; conditions: read-out: Minimum inhibitory concentration
# Description: as §1
# Neisseria gonorrhoeae = assay: as above; assay type: cell-based; conditions: read-out: Minimum inhibitory concentration
# Description: as §1
# Haemophilus influenzae = assay: as above; assay type: cell-based; conditions: read-out: Minimum inhibitory concentration
# Description: as §1
# Proteus mirabilis = assay: as above; assay type: cell-based; conditions: read-out: Minimum inhibitory concentration
# Description: as §1
# Enterobacter cloacae = assay: as above; assay type: cell-based; conditions: read-out: Minimum inhibitory concentration
# Description: as §1
# Staphylococcus aureus = assay: as above; assay type: cell-based; conditions: read-out: Minimum inhibitory concentration
# Description: as §1
# Serratia marcescens = assay: as above; assay type: cell-based; conditions: read-out: Minimum inhibitory concentration
# Description: as §1
# Toxicity (LD100) = assay type: in vivo
# [3] = in vitro, lactamase forming strain
smiles,measurement,setting,value
CO/N=C(\C(=O)N[C@@H]1C(=O)N2C(C(=O)[O-])=C(CSc3nc(=O)cnn3C)CS[C@H]12)c1csc(N)n1.[Na+],MIC,"[1]; Pseudomonas aeruginosa, 1, read-out: Minimum inhibitory concentration",40 mg/L
same,MIC,Proteus vulgaris,0.02 mg/L
same,MIC,"[2]; Pseudomonas aeruginosa, 2, read-out: Minimum inhibitory concentration",40 mg/L
same,MIC,Escherichia coli,0.04 mg/L
same,MIC,Neisseria gonorrhoeae,0.02 mg/L
same,MIC,Haemophilus influenzae,0.02 mg/L
same,MIC,Proteus mirabilis,0.04 mg/L
same,MIC,Enterobacter cloacae,2.5 mg/L
same,MIC,Staphylococcus aureus,2.5 mg/L
same,MIC,Serratia marcescens,0.16 mg/L
same,LD100,Toxicity (LD100); i.v.,1000 mg/kg
same,LD100,Toxicity (LD100); p.o.,> 5000 mg/kg
same,LD100,Toxicity (LD100); s.c.,> 5000 mg/kg
"CO/N=C(\C(=O)N[C@@H]1C(=O)N2C(C(=O)O)=C(CSc3nc(=O)c(C)nn3C)CS[C@H]12)c1csc(N)n1 [Product B, (6R,7R)-7-[2-(2-amino-4-thiazolyl-2-[(Z)-methoxyimino]acetamido]-3-[[(2,5-dihydro-2,6-dimethyl-5-oxo-as-triazin-3-yl)thio]methyl]-8-oxo-5-thia-1-azabicyclo[4.2.0]oct-2-ene-2-carboxylic acid sodium salt]",MIC,"[1]; in vitro, Pseudomonas aeruginosa strain 1, lactamase forming strain, read-out: Minimum inhibitory concentration",80 mg/L
same,MIC,Proteus vulgaris; [3],0.02 mg/L
same,MIC,"[2]; in vitro, Pseudomonas aeruginosa strain 2, lactamase forming strain, read-out: Minimum inhibitory concentration",80 mg/L
same,MIC,Escherichia coli; [3],0.08 mg/L
same,MIC,Neisseria gonorrhoeae; in vitro,0.02 mg/L
same,MIC,Haemophilus influenzae; in vitro,0.02 mg/L
same,MIC,Proteus mirabilis; [3],0.08 mg/L
same,MIC,Enterobacter cloacae; [3],2.5 mg/L
same,MIC,Staphylococcus aureus; in vitro,2.5 mg/L
same,MIC,Serratia marcescens; [3],0.32 mg/L
same,LD100,Toxicity (LD100); i.v.,500 mg/kg
same,LD100,Toxicity (LD100); p.o.,> 5000 mg/kg
same,LD100,Toxicity (LD100); s.c.,> 4000 mg/kg
